This is an account of results in ChEMBL document CHEMBL3867482, “Design and synthesis of water soluble β-aminosulfone analogues of SCH 900229 as γ-secretase inhibitors” (Bioorg Med Chem Lett, 2016).

Data set [1] is described as follows: Kinetic solubility of compound. The format is physicochemical. Particulars: read-out: Kinetic_solubility.
Data set [2] has as its system Mus musculus. In words: Antialzheimer activity in B6C3F1 mouse assessed as amyloid beta 40 level in plasma at 10 mg/kg, po administered as single dose after 3 hrs relative to control. Type of data set: functional.
Data set [3] in a line: Selectivity ratio of IC50 for human gamma secretase PS2 (1 to 467 residues) expressed in baculovirus infected sf9 cells co-expressing aph-1a to IC50 for gamma secretase PS1 (1 to 448 residues) expressed in baculovirus infected sf9 cells co-expressing aph-1a.
Data set [4] in a line: Inhibition of gamma-secretase in HEK293 cell membranes expressing human APP Swedish/London double mutant assessed as reduction in amyloid beta 40 formation after 1 hr by electrochemiluminescence based immunoassay.
For data set [5], the system named is Mus musculus. In words: Antialzheimer activity in B6C3F1 mouse assessed as amyloid beta 40 level in cortex at 10 mg/kg, po administered as single dose after 3 hrs relative to control. Type of data set: functional.
Data set [6] can be described thus: Clearance in dog hepatocytes assessed per million cells by HPLC/atmospheric pressure chemical ionization/MS analysis. The format is ADME, cell-based, Canis lupus familiaris, Hepatocyte. Particulars: read-out: CLH.
Data set [7] addresses Cytochrome P450 2D6 (Homo sapiens, UniProt P10635). As to the kind of experiment: Inhibition of CYP2D6 in human liver microsomes after 30 secs by LC/MS/MS analysis. Type of data set: ADME. (In general: Microsomes from liver hold many membrane-bound enzymes, among them those of drug oxidation.)
Data set [8] can be described thus: Clearance in human hepatocytes assessed per million cells by HPLC/atmospheric pressure chemical ionization/MS analysis. Conditions: read-out: CLH. Type of data set: ADME, cell-based, Hepatocyte.
Data set [9] in a line: Clearance in rat hepatocytes assessed per million cells by HPLC/atmospheric pressure chemical ionization/MS analysis. Type of data set: ADME, cell-based, Hepatocyte. Particulars: read-out: CLH.
Data set [10] concerns the target Cytochrome P450 2C9 (Homo sapiens, UniProt P11712). In words: Inhibition of CYP2C9 in human liver microsomes after 30 secs by LC/MS/MS analysis. The format is ADME.
A short description of data set [11]: Clearance in monkey hepatocytes assessed per million cells by HPLC/atmospheric pressure chemical ionization/MS analysis. The format is ADME, cell-based, Macaca mulatta, Hepatocyte. Particulars: rhesus monkey, read-out: CLH.
A short description of data set [12]: AUC (0 to 6 hrs) in mouse at 10 mg/kg, po by LC/MS/MS analysis. The format is ADME, organism-based. Set-up: time < 6 hr, dose 10 mg/kg, route oral. Conditions: in vivo.
Data set [13] deals with T1, Cytochrome P450 3A4 (Homo sapiens, UniProt P08684). As to the kind of experiment: Inhibition of CYP3A4 in human liver microsomes after 30 secs by LC/MS/MS analysis. The format is ADME.
T1 sequence (P08684 whole entry): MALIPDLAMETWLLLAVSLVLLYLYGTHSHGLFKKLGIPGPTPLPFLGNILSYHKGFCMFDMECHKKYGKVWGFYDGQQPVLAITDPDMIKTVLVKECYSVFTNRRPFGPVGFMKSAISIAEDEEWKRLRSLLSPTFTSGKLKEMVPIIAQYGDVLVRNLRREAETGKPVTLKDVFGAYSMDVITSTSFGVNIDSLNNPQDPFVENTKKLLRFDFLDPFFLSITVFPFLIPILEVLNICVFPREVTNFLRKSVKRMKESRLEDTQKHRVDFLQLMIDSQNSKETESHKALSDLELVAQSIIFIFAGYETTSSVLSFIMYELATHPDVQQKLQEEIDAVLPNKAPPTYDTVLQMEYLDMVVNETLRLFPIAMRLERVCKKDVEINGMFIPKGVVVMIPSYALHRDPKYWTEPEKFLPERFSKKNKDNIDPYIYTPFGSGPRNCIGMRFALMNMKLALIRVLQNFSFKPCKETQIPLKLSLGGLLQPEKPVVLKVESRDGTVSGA
The target of data set [14] is T1, Cytochrome P450 3A4. In words: Inhibition of CYP3A4 in human liver microsomes preincubated for 30 mins after 30 secs by LC/MS/MS analysis. Type of data set: ADME.
Data set [15] can be described thus: Ratio of drug level in brain to plasma in mouse at 6 hrs. Type of data set: ADME, organism-based. Particulars: brain and plasma, read-out: BPR.

Molecules are shown by their SMILES. ≈ marks a conversion by molar mass, not a printed value.

Cytochrome P450 2D6, sequence (P10635 whole entry): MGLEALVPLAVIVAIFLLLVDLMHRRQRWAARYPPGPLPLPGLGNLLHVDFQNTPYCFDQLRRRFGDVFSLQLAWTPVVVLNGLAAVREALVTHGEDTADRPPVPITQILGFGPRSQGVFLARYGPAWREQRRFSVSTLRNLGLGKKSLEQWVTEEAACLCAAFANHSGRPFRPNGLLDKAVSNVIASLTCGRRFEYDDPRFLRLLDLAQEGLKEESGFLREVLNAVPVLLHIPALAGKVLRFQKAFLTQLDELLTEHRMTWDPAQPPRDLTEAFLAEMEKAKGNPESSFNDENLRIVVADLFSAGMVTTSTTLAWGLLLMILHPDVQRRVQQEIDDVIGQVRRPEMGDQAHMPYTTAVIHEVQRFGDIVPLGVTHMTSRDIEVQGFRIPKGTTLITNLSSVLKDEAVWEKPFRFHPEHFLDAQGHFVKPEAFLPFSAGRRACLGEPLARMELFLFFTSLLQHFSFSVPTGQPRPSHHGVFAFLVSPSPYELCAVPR
Cytochrome P450 2C9, sequence (P11712 whole entry): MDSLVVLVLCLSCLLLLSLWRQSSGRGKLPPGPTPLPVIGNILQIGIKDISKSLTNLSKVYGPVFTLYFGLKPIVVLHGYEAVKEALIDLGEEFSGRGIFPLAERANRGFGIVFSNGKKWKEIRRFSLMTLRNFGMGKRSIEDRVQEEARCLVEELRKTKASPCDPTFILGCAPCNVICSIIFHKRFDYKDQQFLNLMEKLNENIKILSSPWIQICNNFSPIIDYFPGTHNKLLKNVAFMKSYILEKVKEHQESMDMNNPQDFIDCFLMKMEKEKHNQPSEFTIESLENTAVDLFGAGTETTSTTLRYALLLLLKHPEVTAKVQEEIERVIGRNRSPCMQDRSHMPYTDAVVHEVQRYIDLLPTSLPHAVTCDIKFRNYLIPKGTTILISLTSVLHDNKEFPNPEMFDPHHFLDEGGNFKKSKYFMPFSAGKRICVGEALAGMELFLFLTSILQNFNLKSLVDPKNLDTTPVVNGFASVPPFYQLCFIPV

For the compound `Cl.O=S(=O)(CC[C@@H]1OCC[C@@]2(S(=O)(=O)c3ccc(Cl)cc3)c3c(F)ccc(F)c3OC[C@@H]12)C[C@H]1CCCN1`, in data set [1], the solubility kinetic is at least 200 µM.

Take `O=C(O)CS(=O)(=O)CC[C@@H]1OCC[C@@]2(S(=O)(=O)c3ccc(Cl)cc3)c3c(F)ccc(F)c3OC[C@@H]12`: the Activity in data set [2] is 47%. In addition, in [3], the Ratio IC50 was found to be 22. In [4], the IC50 (usually the midpoint of a concentration-inhibition curve) is 2.7 nM. In data set [1], the solubility kinetic was over 200 µM.

Turning to `NCCS(=O)(=O)CC[C@@H]1OCC[C@@]2(S(=O)(=O)c3ccc(Cl)cc3)c3c(F)ccc(F)c3OC[C@@H]12`, the Ratio IC50 in data set [3] amounted to 35.

For `O=S(=O)(CC[C@@H]1OCC[C@@]2(S(=O)(=O)c3ccc(Cl)cc3)c3c(F)ccc(F)c3OC[C@@H]12)CCN1CCCC1`, in [3], the Ratio IC50 turned out to be 13. In addition, the half-maximal inhibitory concentration (IC50) in data set [4] turned out to be 1.1 nM.

Regarding `CS(=O)(=O)CC[C@@H]1OCC[C@@]2(S(=O)(=O)c3ccc(Cl)cc3)c3c(F)ccc(F)c3OC[C@@H]12`, the results for the Activity in data set [2] and in [5] were -89% and -78%, respectively. Moreover, the Ratio IC50 in [3] worked out at 25. Besides, the IC50 in [4] was found to be 1.3 nM.

For `CCNCCS(=O)(=O)CC[C@@H]1OCC[C@@]2(S(=O)(=O)c3ccc(Cl)cc3)c3c(F)ccc(F)c3OC[C@@H]12` [listing 1 of 2 here], the Ratio IC50 in data set [3] worked out at 18.

As to `O=S(=O)(CC[C@@H]1OCC[C@@]2(S(=O)(=O)c3ccc(Cl)cc3)c3c(F)ccc(F)c3OC[C@@H]12)CC1=NCCN1`, the hepatocyte CLint came to 20.1 µL/min/1e6 cells in data set [6], 13.7 µL/min/1e6 cells in data set [8], 25.9 µL/min/1e6 cells in [9] and 32 µL/min/1e6 cells in data set [11]. In addition, the half-inhibitory concentration (IC50) was over 20000 nM in data set [7]; over 20000 nM in data set [10]; 5.9 nM in data set [4]; 13200 nM in data set [13]; 1000 nM in data set [14]. In addition, the Activity in data set [2] is -86%. The AUC(0-t) (commonly exposure summed from dosing to a finite time, without extrapolation to infinity) at 6 h in data set [12] was found to be 0.057 µM·h. Moreover, the solubility kinetic in data set [1] was 20 µM (≈ 11.5 µg/mL).

Turning to `CCNCCS(=O)(=O)CC[C@@H]1OCC[C@@]2(S(=O)(=O)c3ccc(Cl)cc3)c3c(F)ccc(F)c3OC[C@@H]12` [listing 2 of 2 here], the hepatocyte CLint in data set [6] amounted to 10.8 µL/min/1e6 cells; in data set [8], 15.1 µL/min/1e6 cells; in data set [9], 29.1 µL/min/1e6 cells; in [11], 44.6 µL/min/1e6 cells. For the same compound, the 50% inhibitory concentration (IC50) was over 20000 nM in data set [7]; over 20000 nM in data set [10]; 0.9 nM in data set [4]; over 20000 nM in data set [13]; 1400 nM in data set [14]. The compound further displayed an AUC(0-t) at 6 h in [12] of 1.35 µM·h. Moreover, in [15], the Kp at 6 h was determined as 0.4.

For `Cl.O=S(=O)(CC[C@@H]1OCC[C@@]2(S(=O)(=O)c3ccc(Cl)cc3)c3c(F)ccc(F)c3OC[C@@H]12)[C@@H]1CCNC1`, the solubility kinetic in [1] is at least 200 µM.

In the case of `O=S(=O)(CC[C@@H]1OCC[C@@]2(S(=O)(=O)c3ccc(Cl)cc3)c3c(F)ccc(F)c3OC[C@@H]12)C[C@H]1CCCN1`, the hepatocyte CLint in [6] is 13.6 µL/min/1e6 cells; in [9] it was 12.8 µL/min/1e6 cells; in [11] it was 28 µL/min/1e6 cells. The half-maximal inhibitory concentration (IC50) in data set [7] was over 20000 nM; in data set [10], over 20000 nM; in [4], 1 nM; in data set [13], over 20000 nM; in [14], 1000 nM. For the same compound, the Activity in data set [2] is given as -71%; in data set [5], -42%. The AUC(0-t) at 6 h in data set [12] stood at 2.52 µM·h. Also, the Kp at 6 h in data set [15] came to 0.4.

For `O=S(=O)(CC[C@@H]1OCC[C@@]2(S(=O)(=O)c3ccc(Cl)cc3)c3c(F)ccc(F)c3OC[C@@H]12)C[C@@H]1CCCN1`, in [3], the Ratio IC50 came out at 14.

With `CCNCCS(=O)(=O)CC[C@@H]1OCC[C@@]2(S(=O)(=O)c3ccc(Cl)cc3)c3c(F)ccc(F)c3OC[C@@H]12.Cl`, the solubility kinetic in data set [1] is at least 200 µM.

On to `CC(C)NCCS(=O)(=O)CC[C@@H]1OCC[C@@]2(S(=O)(=O)c3ccc(Cl)cc3)c3c(F)ccc(F)c3OC[C@@H]12`, for which the Ratio IC50 in [3] was found to be 30. The IC50 in data set [4] came out at 0.5 nM.

Consider `O=S(=O)(CCO)CC[C@@H]1OCC[C@@]2(S(=O)(=O)c3ccc(Cl)cc3)c3c(F)ccc(F)c3OC[C@@H]12`, for which the Activity in [2] is -42%; in data set [5] it was -46%. For the same compound, the half-maximal inhibitory concentration (IC50) in [4] was determined as 1 nM. Besides, the solubility kinetic in data set [1] was over 200 µM.

`O=S(=O)(CC[C@@H]1OCC[C@@]2(S(=O)(=O)c3ccc(Cl)cc3)c3c(F)ccc(F)c3OC[C@@H]12)CCN1CCCCC1`: in data set [3], the Ratio IC50 was 9. For the same compound, the IC50 in [4] was determined as 1.3 nM.

Consider `Cl.NCCS(=O)(=O)CC[C@@H]1OCC[C@@]2(S(=O)(=O)c3ccc(Cl)cc3)c3c(F)ccc(F)c3OC[C@@H]12`, for which the solubility kinetic in [1] is at least 200 µM.

Regarding `O=S(=O)(CC[C@@H]1OCC[C@@]2(S(=O)(=O)c3ccc(Cl)cc3)c3c(F)ccc(F)c3OC[C@@H]12)[C@H]1CCNC1`, the Ratio IC50 in [3] is 30.
